Assay results from PubChem BioAssay (NCI).
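How tested: cells in 96-well plates exposed to compound for 48 hours at five concentrations. TGI: total growth inhibition.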

Legend:
Assay in all cases: NCI tumour cell line growth inhibition, 48 h
[1] = test system: SNB-75 CNS
[2] = test system: MDA-N
[3] = test system: SK-MEL-2 melanoma
[4] = test system: NCI-H23 lung
[5] = test system: NCI-H226 lung
[6] = test system: SF-295 CNS
[7] = test system: CCRF-CEM leukemia
[8] = test system: M14 melanoma
[9] = test system: A549 NSCLC
[10] = test system: MALME-3M melanoma
[11] = test system: BT-549 breast
[12] = test system: CAKI-1 renal
[13] = test system: RXF 393 renal
[14] = test system: HOP-62 NSCLC
[15] = test system: UO-31 renal
[16] = test system: SK-MEL-28 melanoma
[17] = test system: OVCAR-5 ovarian
[18] = test system: HCC-2998 colon
[19] = test system: MDA-MB-231 breast
[20] = test system: RPMI-8226 leukemia
[21] = test system: SR leukemia
[22] = test system: OVCAR-3 ovarian
[23] = test system: UACC-257 melanoma
[24] = test system: NCI-H460 lung
[25] = test system: U251 CNS
[26] = test system: NCI/ADR-RES ovarian
[27] = test system: TK-10 renal
[28] = test system: MOLT-4 leukemia
[29] = test system: SN12C renal
[30] = test system: SF-268 CNS
[31] = test system: SW-620 colon
[32] = test system: UACC-62 melanoma
[33] = test system: COLO 205 colon
[34] = test system: T-47D breast
[35] = test system: LOX IMVI melanoma
[36] = test system: DU-145 prostate
[37] = test system: HT29 colon
[38] = test system: K-562 leukemia
[39] = test system: SK-OV-3 ovarian
[40] = test system: HOP-92 NSCLC
[41] = test system: SF-539 CNS
[42] = test system: OVCAR-4 ovarian
[43] = test system: HCT-116 colon
[44] = test system: MCF7 breast
[45] = test system: SNB-19 CNS
[46] = test system: HS 578T breast
[47] = test system: PC-3 prostate
[48] = test system: MDA-MB-435
[49] = test system: EKVX NSCLC
[50] = test system: SK-MEL-5 melanoma
[51] = test system: IGROV1 ovarian
[52] = test system: ACHN renal
[53] = test system: KM12 colon
[54] = test system: OVCAR-8 ovarian
[55] = test system: NCI-H522 lung
[56] = test system: HCT-15 colon
[57] = test system: 786-0 renal

`Cc1cc(C)c(S(=O)(=O)N(CCCN)OCCCN)c(C)c1` was tested, and the TGI [1] was > 100 µM, the TGI [2] was > 100 µM and the TGI [3] was > 100 µM. For the same compound, the TGI [4] was > 100 µM, the TGI [5] was > 100 µM and the TGI [6] was > 100 µM. For the same compound, the TGI [7] was > 100 µM, the TGI [8] was > 100 µM and the TGI [9] was > 100 µM. The TGI [10] was > 100 µM, the TGI [11] was > 100 µM and the TGI [12] was > 100 µM. The TGI [13] was > 100 µM, the TGI [14] was > 100 µM and the TGI [15] was > 100 µM. The TGI [16] was > 100 µM, the TGI [17] was > 100 µM and the TGI [18] was > 100 µM. For the same compound, the TGI [19] was > 100 µM, the TGI [20] was > 100 µM and the TGI [21] was > 100 µM. The TGI [22] was > 100 µM, the TGI [23] was > 100 µM and the TGI [24] was > 100 µM. For the same compound, the TGI [25] was > 100 µM, the TGI [26] was > 100 µM and the TGI [27] was > 100 µM. The TGI [28] was > 100 µM, the TGI [29] was > 100 µM and the TGI [30] was > 100 µM. The TGI [31] was > 100 µM, the TGI [32] was > 100 µM and the TGI [33] was > 100 µM. For the same compound, the TGI [34] was > 100 µM, the TGI [35] was > 100 µM and the TGI [36] was > 100 µM. For the same compound, the TGI [37] was > 100 µM, the TGI [38] was > 100 µM and the TGI [39] was > 100 µM. The TGI [40] was > 100 µM, the TGI [41] was > 100 µM and the TGI [42] was > 100 µM. The TGI [43] was > 100 µM, the TGI [44] was > 100 µM and the TGI [45] was > 100 µM. For the same compound, the TGI [46] was > 100 µM, the TGI [47] was > 100 µM and the TGI [48] was > 100 µM. The TGI [49] was > 100 µM, the TGI [50] was > 100 µM and the TGI [51] was > 100 µM. The TGI [52] was > 100 µM, the TGI [53] was > 100 µM and the TGI [54] was > 100 µM.

`CCOC(=O)[C@@H]1C[C@@H]1c1ccc(O)c(O)c1` was tested, and the TGI [2] was 35.1 µM, the TGI [3] was 68.8 µM and the TGI [4] was > 100 µM. For the same compound, the TGI [5] was 97.4 µM, the TGI [6] was > 100 µM and the TGI [8] was 25.2 µM. The TGI [9] was > 100 µM, the TGI [10] was > 100 µM and the TGI [11] was 75.9 µM. The TGI [12] was > 100 µM, the TGI [13] was 54 µM and the TGI [14] was > 100 µM. For the same compound, the TGI [55] was 26.5 µM, the TGI [15] was 60.9 µM and the TGI [16] was > 100 µM. The TGI [17] was > 100 µM, the TGI [18] was 67.7 µM and the TGI [19] was 27.8 µM. For the same compound, the TGI [20] was 77 µM, the TGI [21] was > 100 µM and the TGI [22] was 67.8 µM. The TGI [23] was > 100 µM, the TGI [24] was > 100 µM and the TGI [25] was > 100 µM. The TGI [26] was > 100 µM, the TGI [27] was > 100 µM and the TGI [28] was 22.5 µM. For the same compound, the TGI [29] was > 100 µM, the TGI [30] was > 100 µM and the TGI [31] was 42.2 µM. For the same compound, the TGI [32] was 27 µM, the TGI [33] was > 100 µM and the TGI [34] was 51.7 µM. The TGI [36] was > 100 µM, the TGI [37] was > 100 µM and the TGI [38] was 32.9 µM. For the same compound, the TGI [39] was > 100 µM, the TGI [40] was > 100 µM and the TGI [41] was 49.3 µM. For the same compound, the TGI [43] was 32.7 µM, the TGI [44] was 35.2 µM and the TGI [45] was > 100 µM. The TGI [46] was > 100 µM, the TGI [47] was > 100 µM and the TGI [48] was 34.5 µM. The TGI [49] was > 100 µM, the TGI [56] was > 100 µM and the TGI [50] was 27.5 µM. The TGI [51] was > 100 µM, the TGI [52] was > 100 µM and the TGI [57] was 34.7 µM. It also gave a TGI [53] of 82.2 µM and a TGI [54] of 52.2 µM.
